# Key:
# DMS114 SCLC cells = experiment: Cell growth inhibition assay for DMS114 SCLC cells; format: cell-based; details: Homo sapiens, DMS-114, 17-21 days of treatment, mean of 6 biological replicates, read-out: Proliferation IC50 ± SD (nM) (n)
# Protocol: (§1) COR-L88 (92031917) cells were purchased from ECACC. […] No. 1565565).
# DMS114 SCLC cells were plated in complete cell culture medium described above (1 mL/well) in a 12-well clear, flat bottom polystyrene tissue culture plate (Falcon, Cat. 353225) at a density of 10,000 cells/well. Plates were incubated overnight for 16 hours at 37° C. and 5% CO2. Cells were then treated for 3 days with a 10-point, 3-fold serial dilution of Compound 1 starting at a high concentration of 3 μM. After 3 days, cells from each individual dose treatment were dissociated with Trypsin-EDTA (0.25%) (Gibco/Life Technologies Cat. 25200-056), resuspended in fresh medium, and counted using Vi-Cell cell counter and cell viability analyzer (Beckman Coulter, cat. 383556). […] Plates were then read in an Infinite M200 Pro microplate reader (Tecan Cat. 396235) using a fluorescence excitation wavelength of 540 nm to 570 nm (peak excitation is 570 nm) and emission at 580 nm to 610 nm (peak emission is 585 nm). IC50 values were calculated using nonlinear regression dose response curve fit in GraphPad Prism version 7.02.
# The activity of Compound 1 in inhibiting cell proliferation of EZH2-WT DMS114 SCLC cells was also assessed using the cell proliferation assay for DMS114 SCLC cells described above. […]
# H446 SCLC cells = experiment: Cell growth inhibition assay, H446 SCLC cells; format: cell-based; details: Homo sapiens, NCI-H446, 504 h; H446 cell line, 21 days of treatment; read-out: inhibition of cell proliferation, mean IC50
# Protocol: as §1
# H841, H446 and H69 cells were plated in their recommended complete culture medium described above (1 mL/well) in triplicate 12 well plates for each cell line at a density of 100,000 cells per well. Plates were incubated overnight at 37° C. and 5% CO2. Compound 1 stock was prepared at 50 mM in DMSO and was dispensed to several single-use aliquots and stored at −20° C. To prepare the compound plate, Compound 1 was diluted to 3 mM in DMSO and then 3-fold serial dilution were made in DMSO (10 doses in total). […] On Day 21, cell morphology was observed under microscope and any morphology changes upon compound treatment were recorded. […] Cell viability was measured using according to manufacturer's instructions.
# Based on the strong activity observed with Compound 1 in DMS114 cells (see example 1 above), the antiproliferative activity of Compound 1 was also tested in 3 additional SCLC cell lines, namely H841, H446 and H69 using the cell proliferation assay described above. Each cell line was treated with different concentrations of Compound 1 using a 10-point dose curve (1:3 dilution in DMSO) with 3 μM to 0.1 nM for 21 days and then assessed for cell viability. […]
# [1] = system: H3K27Me3 in DMS114 tumors; experiment: H3K27Me3 ELISA on histones of DMS114 xenograft tumors; format: in vivo, female NOD/SCID mice; details: Mus musculus, DMS-114, 1320 h; 300 mg/kg BID, tumors harvested at Day 55; read-out: maximum inhibition of H3K27Me3 in tumor samples
# Protocol: Extracts were aliquoted and stored at −20° C. (short term) or −80° C. (long term). […] Data was analyzed using GraphPad Prism version 7.02.
# The in vivo activity of Compound 1 against EZH2 in the DMS114 SCLC xenograft model was determined by measurement of the relative amount of cellular H3K27Me3 and Me2 levels with ELISA using the tumor tissue samples harvested at Day 55 from the study described in Example 3 above.
# [2] = system: EZH2 (H3K27Me3 levels) in DMS114 SCLC cells containing wild-type EZH2; experiment: cells; details: Homo sapiens, DMS-114, 72 h, read-out: H3K27Me3 IC50 ± SD (nM) (n)
# Protocol: SCLC cell line DMS114 was obtained from American Type Culture Collection (American Type Culture Collection, ATCC CRL-2066) and cultured in Waymouth's Medium MB 752/1 (Gibco/Life Technologies Cat. 11220-035), plus 10% Fetal Bovine Serum (FBS) (Gibco/Life Technologies Cat. 10082-147) and 1% Pen/Strep. […] All cells were maintained in a humidified incubator at 37° C. with 5% carbon dioxide (CO2).
# Cells were plated at 1500 cells per well in 96-well black, flat, clear-bottom plates (Falcon, BD-353219). The following day, compounds were added to the wells at 3-fold dilution with a final concentration range from 3 μM to 0.1 nM, leaving some cells empty for controls: “DMSO only (1st and 2nd antibody)” and “DMSO only (2nd antibody only)”. […] After 2 hours, the secondary antibody was removed, the plates were washed again 5 times in PBST for 5 minutes each and then fluorescent signal was detected on an Odyssey LiCoR instrument (focus length 3 mm; using both 800 nm (for secondary) and 700 nm filters together (for DRAQ5). IC50 values were calculated using a four-parameter fit with GraphPad Prism version 7.02 and arithmetic mean of all biological replicates was calculated.
# EZH2 inhibitor activity was determined in the cells by measurement of the relative amount of cellular H3K27Me3 levels.
smiles,measurement,setting,value
"COc1cc(C)[nH]c(=O)c1CN1CCc2c(Cl)cc([C@H](OC)C3COC3)c(Cl)c2C1=O [Compound 1, 5,8-dichloro-2-[(4-methoxy-6-methyl-2-oxo-1,2-dihydro-pyridin-3-yl)methyl]-7-[(R)-methoxy(oxetan-3-yl)methyl]-3,4-dihydroisoquinolin-1(2H)-one]",IC50,DMS114 SCLC cells,18.8 nM
same,IC50,H446 SCLC cells,0.109 µM
same,inhibition at 300 mg/kg,[1],96%
same,IC50,[2],9.48 nM
